PMC5071873, “The Effects of Puerarin on Rat Ventricular Myocytes and the Potential Mechanism” (Scientific Reports, 2016)
pIC50: −log10 of the molar value.

How the values were obtained:
[1] = target: T1, Kir2.1 (Homo sapiens, UniProt P63252); assay: Whole-cell patch clamp of Kir2.1 currents (ramp voltage protocol) in transfected HEK293 cells; assay type: cell-based
T1 construct: expressed in transfected cells; host or cells: HEK293
T1 sequence (P63252 1-427): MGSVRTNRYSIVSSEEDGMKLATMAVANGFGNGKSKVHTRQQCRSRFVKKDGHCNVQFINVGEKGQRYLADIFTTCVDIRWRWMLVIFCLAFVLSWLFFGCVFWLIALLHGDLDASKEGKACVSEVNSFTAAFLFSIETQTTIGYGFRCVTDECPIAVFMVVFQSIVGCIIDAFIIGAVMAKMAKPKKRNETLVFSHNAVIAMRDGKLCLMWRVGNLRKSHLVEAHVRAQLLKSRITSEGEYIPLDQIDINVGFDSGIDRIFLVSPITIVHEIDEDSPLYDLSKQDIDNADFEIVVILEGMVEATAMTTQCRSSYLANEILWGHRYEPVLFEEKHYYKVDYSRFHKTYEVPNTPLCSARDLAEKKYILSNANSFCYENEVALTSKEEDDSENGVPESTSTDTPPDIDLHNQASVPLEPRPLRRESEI
Procedure: (§1) The Tyrode’s solution contained (mM): 126 NaCl, 5.4 KCl, 1.8 CaCl2, 1 MgCl2, 0.33 NaH2PO4, 10 HEPES and 10 glucose, pH 7.4 (adjusted with NaOH). The Ca^2+-free Tyrode’s solution was prepared by removing CaCl2 from the Tyrode’s solution. The Kreb’s solution used for cell storage contained (mM): 70 glutamic acid, 30 KCl, 15 taurine, 0.5 MgCl2, 10 KH2PO4, 0.5 EGTA, 10 HEPES, 10 glucose, and 1% albumin, pH 7.4 (adjusted with KOH). The enzyme solution used for the rat cardiomyocyte isolation contained 0.08 g/L collagenase (type II) and 1.0 g/L BSA in Kreb’s solution. For action potential recording on cardiomyocyte, the pipette solution contained (mM): 100 potassium aspartate, 30 KCl, 1 MgCl2, 5 Mg-ATP, 5 EGTA, 5 HEPES, pH 7.3 (adjusted with KOH); the Tyrode’s solution was used as the standard bath solution. For whole-cell recording of IKs on myocytes, the pipette solution contained (mM): 125 potassium aspartate, 20 KCl, 1 MgCl2, 5 Mg-ATP, 10 EGTA, 5 HEPES, pH 7.3 (adjusted with KOH); the bath solution contained (mM): 132 NaCl, 4 KCl, 1.8 CaCl2, 1.2 MgCl2, 10 HEPES, 5 glucose, pH 7.4 (adjusted with NaOH). 3 μM nifedipine and 5 μM E-4031 were used to block the calcium current and IKr, respectively. For whole-cell recording on HEK-293 cells, the pipette solution contained (mM): 140 KCl, 2 MgCl2, 10 HEPES, 0.1 EGTA, 4 K2-ATP, pH 7.3 (adjusted with KOH); the bath solution contained (mM): 120 NaCl, 5 KCl, 1.5 CaCl2, 1 MgCl2, 10 HEPES, 10 glucose, pH 7.4 (adjusted with NaOH). For single-channel recording, the pipette solution (extracellular) contained (mM): 145 KCl, 10 HEPES, 10 glucose, pH 7.4 (adjusted with KOH); the bath solution (intracellular) contained (mM): 145 KCl, 1.2 MgCl2, 10 HEPES, 0.1 EGTA, pH 7.38 (adjusted with KOH).
Cell suspensions were transferred into a chamber on the stage of a Nikon Eclipse Ti inverted microscope (Tokyo, Japan). The whole-cell recordings were performed using isolated single ventricular myocytes. Patch electrodes were pulled from a horizontal microelectrode puller (P-1000, Sutter Instrument Co, USA) and fire polished to final tip resistance of 4.0–8.0 MΩ when filled with internal solutions. Signals were amplified with an Axopatch 200B amplifier (Axon Instruments, USA) and filtered at 1 kHz. The pCLAMP 9.0 software was used to generate current and voltage clamp protocols, acquire data, and analyse the current traces. The whole-cell series resistance was compensated to more than 80%. All of the experiments were performed at room temperature (22 ± 1 °C). The whole-cell IK1 was elicited by a ramp voltage protocol from −140 to + 40 mV in 1 s, or at a 0 mV holding potential to test potentials from −140 to + 40 mV in 10 mV increments. The IK1 was calculated as the difference between the peak inward current and the holding current level. The whole-cell Kv7.1/IKs were elicited from a −30 mV holding potential to test potentials from −80 to + 40 mV in 10 mV increments.
Human Kir2.1 cDNA, Kir2.3 cDNA, Kv7.1 cDNA and KCNE1 cDNA, was cloned in Human Embryonic Kidney 293 cells, respectively. In some cases, Kv7.1 cDNA and KCNE1 cDNA were simultaneously cloned in Human Embryonic Kidney 293 cells.

[2] = target: T2, Kir2.3 (Homo sapiens, UniProt P48050); assay: Whole-cell patch clamp of Kir2.3 currents (ramp voltage protocol) in transfected HEK-293 cells; assay type: cell-based
T2 sequence (P48050 1-445): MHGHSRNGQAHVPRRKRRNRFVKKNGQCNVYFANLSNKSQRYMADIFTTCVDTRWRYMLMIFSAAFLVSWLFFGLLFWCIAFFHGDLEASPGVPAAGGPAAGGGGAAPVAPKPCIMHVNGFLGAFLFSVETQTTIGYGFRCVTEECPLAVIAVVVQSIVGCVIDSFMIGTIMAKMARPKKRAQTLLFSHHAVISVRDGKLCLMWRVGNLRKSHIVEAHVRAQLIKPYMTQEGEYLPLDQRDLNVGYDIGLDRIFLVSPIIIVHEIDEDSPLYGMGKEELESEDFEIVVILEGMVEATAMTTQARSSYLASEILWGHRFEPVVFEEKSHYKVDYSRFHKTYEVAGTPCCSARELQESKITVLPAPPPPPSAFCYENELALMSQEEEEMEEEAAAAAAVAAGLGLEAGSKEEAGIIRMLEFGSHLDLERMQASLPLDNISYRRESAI
Procedure: as §1, with “3 μM nifedipine and 5 μM E-4031 were used to block the calcium current and IKr, respectively. For whole-cell recording on HEK-293 cells, the pipette solution contained (mM): 140 KCl, 2 MgCl2, 10 HEPES, 0.1 EGTA, 4 K2-ATP, pH 7.3 (adjusted with KOH); the bath solution contained (mM): 120 NaCl, 5 KCl, 1.5 CaCl2, 1 MgCl2, 10 HEPES, 10 glucose, pH 7.4 (adjusted with NaOH). For single-channel recording, the pipette solution (extracellular) contained (mM): 145 KCl, 10 HEPES, 10 glucose, pH 7.4 (adjusted with KOH); the bath solution (intracellular) contained (mM): 145 KCl, 1.2 MgCl2, 10 HEPES, 0.1 EGTA, pH 7.38 (adjusted with KOH).” left out
Cell suspensions were transferred into a chamber on the stage of a Nikon Eclipse Ti inverted microscope (Tokyo, Japan). […] The IK1 was calculated as the difference between the peak inward current and the holding current level. […]

O=c1c(-c2ccc(O)cc2)coc2c([C@@H]3O[C@H](CO)[C@@H](O)[C@H](O)[C@H]3O)c(O)ccc12 [Puerarin, 8-c-glucoside of daidzein]
effect on Kir2.1 currents at low concentrations ([1]; 10 μM, 1 mM (so in the source)): little effect | saturation dosage, inhibition of Kir2.1 ([1]; HEK293): 50 mM | maximal inhibitory effect upon Kir2.1 ([1]; HEK293, n = 5 each point): 53.11 ± 1.84% | pIC50 ([1]; HEK293, non-linear Hill fit, n = 5 each point, read-out: IC50, inhibition of Kir2.1 currents): 2.90 | Hill coefficient, inhibition of Kir2.1 ([1]; non-linear Hill fit): 0.990 | effect on Kir2.3 currents at low concentrations ([2]; 10 μM, 100 μM, 1 mM): less effect | Hill coefficient, inhibition of Kir2.3 ([2]; non-linear Hill fit): 0.984
